Measurements as given in PMC8574161 (Journal of chemical information and modeling, 2021).
Several values for one entry are separate records, joined by “and”; a condition that tells them apart may be missing. Equal entries are not always repeated. Structures can show the parent of a compound that is named as a salt. Where two headings read alike, the source gives them in different places.

Experiments:
SARS-CoV-2 [1] = settings: Vero cells; cited from earlier work
SARS-CoV-2 [2] = experiment: microbe, parasite or virus in culture
in vitro = settings: human
SARS-CoV-2 [3] = settings: compared with CC50
SARS-CoV-2 [4] = experiment: Vero 76 reduction of virus-induced cytopathic effect; format: cell-based; settings: Severe acute respiratory syndrome coronavirus 2, Vero 76, Vero 76
SARS-CoV-2 [5] = settings: Vero E6 cells; cited from earlier work
[6] = system: SARS-CoV-2 (isolate USA WA1/2020); experiment: microbe, parasite or virus in culture; format: cell-based; settings: Severe acute respiratory syndrome coronavirus 2, Calu-3, 48 h
Calu3 toxicity = format: cell-based; settings: human, Calu3 cells infected with SARS-CoV-2
[7] = Vero 76 cytotoxicity in uninfected toxicity cultures; settings: African green monkey, CC50, Vero 76
[8] = molecular target: SARS-CoV-2 Spike RBD protein (Severe acute respiratory syndrome coronavirus 2, UniProt P0DTC2); experiment: Microscale thermophoresis binding to Spike RBD; settings: MST, 5 nM labeled Spike RBD, 23°C, quadruplicate
SARS-CoV-2 [9] = settings: Calu-3 cells; cited from earlier work
[10] = Severe acute respiratory syndrome coronavirus 2, Caco-2, 72 h
[11] = Neutral Red (Cytopathic effect/Toxicity)
[12] = Visual (Cytopathic effect/Toxicity)

For `Cc1cn(-c2cc(NC(=O)c3ccc(C)c(Nc4nccc(-c5cccnc5)n4)c3)cc(C(F)(F)F)c2)cn1` [Nilotinib], the potency (SARS-CoV-2 [1]) is given as “sub-micromolar”.
In the case of `COc1cc2c(cc1OC)C1CC(=O)C(CC(C)C)CN1CC2` (centres unmarked) [Tetrabenazine], the EC90 (SARS-CoV-2 [2]; Severe acute respiratory syndrome coronavirus 2, Caco-2) is reported as over 100 µM, the CC50 at 3 days (in vitro) is reported as over 100 µM and the “activity against SARS-CoV-2 in Caco-2 cells (in words)” value (SARS-CoV-2 [3]) is reported as “inactive”.
For `CCCCN(CCCC)CC(O)c1cc(Cl)cc2c1-c1ccc(Cl)cc1/C2=C/c1ccc(Cl)cc1` (centres unmarked) [Lumefantrine], the EC90 (SARS-CoV-2 [2]; [10]) was 10 µM, the EC50 (SARS-CoV-2 [4]; [11]) was 54 µM and the EC50 (SARS-CoV-2 [4]; [12]) was over 60 µM. The EC50 (SARS-CoV-2 [5]) was 23.2 µM, the IC50 [6] was over 20 µM and the CC50 at 48 h (Calu3 toxicity) was over 20 µM. The CC50 at 3 days (in vitro) was 10 µM, the CC50 [7, 11] was 177 µM and the CC50 [7, 12] was over 60 µM. For the same compound, the Kd [8] was 259 nM and ~250 nM.
For `CCCC1O[C@@H]2C[C@H]3[C@@H]4CCC5=CC(=O)C=C[C@]5(C)[C@H]4[C@@H](O)C[C@]3(C)[C@]2(C(=O)CO)O1` (some centres unmarked) [Budesonide], the EC90 (SARS-CoV-2 [2]; [10]) was over 10 µM, the CC50 at 3 days (in vitro) was 10 µM and the “activity against SARS-CoV-2 in Caco-2 cells (in words)” value (SARS-CoV-2 [3]) was “no activity”.
For `C[C@H]1[C@H](OC(=O)CCC(=O)O)O[C@@H]2O[C@@]3(C)CC[C@H]4[C@H](C)CC[C@@H]1[C@@]24OO3` [Artesunate], the IC50 (SARS-CoV-2 [9]) is given as 1760 nM.
Work on `C=C[C@]1(C)C[C@@H](OC(=O)CSCCN(CC)CC)[C@]2(C)[C@H](C)CC[C@]3(CCC(=O)[C@H]32)[C@@H](C)[C@@H]1O` [Tiamulin fumarate] yielded an EC90 (SARS-CoV-2 [2]; [10]) of 65 µM and a CC50 at 3 days (in vitro) of over 100 µM.
